Key:
[1] = biological target: T1, interaction of TM4SF1 and DDR1 (Homo sapiens, UniProt P30408); experiment: Co-immunoprecipitation / Western Blotting of TM4SF1 and DDR1 co-overexpressed in 293FT cells, Collagen I stimulated; format: cell-based; conditions: 293FT cells co-overexpressing TM4SF1 and DDR1, peptide overexpressed in 293FT cells and purified, Collagen I 10 μg/ml, 6 hours, FIG. 9
T1 construct: expressed in transfected cells; host or cells: 293FT cells
T1 sequence (P30408 1-202): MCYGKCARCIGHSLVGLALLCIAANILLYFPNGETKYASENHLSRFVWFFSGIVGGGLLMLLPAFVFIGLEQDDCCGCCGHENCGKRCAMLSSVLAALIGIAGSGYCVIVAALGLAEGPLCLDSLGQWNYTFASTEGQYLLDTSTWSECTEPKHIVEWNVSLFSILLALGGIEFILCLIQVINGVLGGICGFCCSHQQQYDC
Protocol: 293FT cells were cultured in DMEM-HG medium and digested with trypsin. The cells were counted and seeded at a density of 1×10^6 cells per dish in 6 cm (diameter) culture dish. The next day, 700 μl of serum-free DMEM-HG medium was respectively added to two centrifuge tubes. 10 μl of P-Pei transfection reagent was added to the first centrifuge tube. 1 μg PQCXIP-hTM4SF1 plasmid and 1 μg PQCXIN-hDDR1 plasmid were added to the second centrifuge tube and mixed well. The resultant from the second centrifuge tube was added to the first centrifuge tube and incubated for 20 min to obtain the transfection mixture. The culture medium of the 293FT cells seeded the day before was removed, and the transfection mixture above was added to the culture dish and incubated for 6 hours. Fresh medium was added to continue the culture. 48 hours after the transfection, the medium was removed, 2 ml of serum-free DMEM-HG medium containing a certain concentration of FC17-7 antibody obtained in Example 1 or IgG (as a negative control) was added. After incubating the culture dish at 37° C. for 5 minutes, Collagen I was added to the culture dish to a final concentration of 10 μg/ml. The cells were cultured for 6 hours and then collected. […] After the elution, the mixture was centrifuged at 3,000 rpm for 2 min to collect the supernatant, and the protein expression was detected by Western Blotting. […]

[2] = test system: p-STAT3 (TM4SF1 associated non-classical DDR1 signaling pathway); experiment: Western Blotting of p-STAT3, TM4SF1 associated non-classical DDR1 signaling pathway, in cells overexpressing TM4SF1 and DDR1; format: cell-based, human; conditions: Collagen I 10 μg/ml, 12 hours, FIG. 10; for inhibition of P-STAT3 / downstream signal transduction (Western Blotting), peptide: cells overexpressing TM4SF1 and DDR1, PBS negative control
Protocol: The transfection method has been described in Example 4. 48 hours after transfection, the medium was removed, 2 ml of serum-free DMEM-HG medium containing a certain concentration of FC17-7 antibody obtained in Example 1 or IgG (as a negative control) was added. After incubating the culture dish at 37° C. for 5 minutes, Collagen I was added to the culture dish to a final concentration of 10 μg/ml and cultured for 12 hours. The cells were collected and lysed with IP-RIPA buffer in a refrigerator at 4° C. for 1 h. The lysate was sonicated twice (15 s 30% power), then centrifuged at 12,000 rpm for 30 min. The supernatant was sampled to determine the protein concentration, and the protein concentration of each sample was adjusted to be the same. The sample was subjected to SDS-PAGE electrophoresis, and the proteins were transferred to a membrane by conventional way in Western Blotting, and then stained with the antibody.
The transfection method has been described in Example 4. 48 hours after transfection, the medium was removed, 2 ml of serum-free DMEM-HG medium containing a certain concentration of the extracellular loop 1 peptide of TM4SF1 prepared in Example 3 or PBS (as a negative control) was added. After incubating the culture dish at 37° C. for 5 minutes, Collagen I was added to the culture dish to a final concentration of 10 μg/ml. The cells were cultured for 12 hours and then collected. The cells were lysed with IP-RIPA buffer in a refrigerator at 4° C. for 1 h. The lysate was sonicated twice (15 s 30% power), and then centrifuged at 12,000 rpm for 30 min. The supernatant was sampled to determine the protein concentration, and the protein concentration of each sample was adjusted to be the same. The sample was subjected to SDS-PAGE electrophoresis, and the proteins were transferred to a membrane by a conventional way used in Western Blotting, and then stained with antibody.

[3] = test system: MDAMB231-BoM-1833-TGL cells; experiment: Breast cancer metastasis mouse model (ventricular injection of tumor cells, in vivo imaging, survival); conditions: peptide injected from Day -1 every other day; for metastasis of breast cancer, peptide: mice, IgG negative control, FIGS. 11 and 12
Protocol: The day before the injection of tumor cells into mice was recorded as Day −1 of the experiment. On Day −1, the mice were fasted for 4 hours, injected with the desired concentration of FC17-7 antibody obtained in Example 1 or IgG (as a negative control), and given food after 2 hours. After the first injection, the mice were injected with antibodies every three days. On Day 0 of the experiment, MDAMB231-BoM-1833-TGL cells were blocked with antibodies according to the method of Example 4. After 6 hours, the cells were digested. The medium was removed, and the cells were washed with PBS once and resuspended in PBS to a concentration of 1×10^6 cells/ml. Then, mice were injected with 1×10^5 tumor cells/100 μl by ventricular injection to establish a mouse metastasis model. Every other week, the mice were subjected to in vivo imaging to record the fluorescence signal data. By establishing a breast cancer metastasis model, periodically administration of the monoclonal antibody FC17-7 prepared in Example 1 was performed in mice.
The day before the injection of tumor cells into mice was recorded as Day −1 of the experiment. On Day −1, the mice were fasted for 4 hours, and injected with the desired concentration of the extracellular loop 1 peptide of TM4SF1 prepared in Example 3 or IgG (as negative control), and given food after 2 hours. After the first injection of the peptide, the mice were injected with the peptide every other day. On Day 0 of the experiment, MDAMB231-BoM-1833-TGL cells were blocked with the peptide according to the method of Example 9. After 6 hours, the cells were digested. The medium was removed, and the cells were washed with PBS once, and resuspended in PBS to a concentration of 1×10^6 cells/ml. For the method of establishing a breast cancer metastasis mouse model, refer to the method in Example 7.

[4] = listed as small extracellular loop 1 peptide of TM4SF1

“FPNGETKYASENHLSRC [extracellular loop 1 peptide of TM4SF1]” was tested, and the “disruption of the interaction between TM4SF1 and DDR1 (co-immunoprecipitation), peptide” value [1] was “significantly disrupt the interaction between TM4SF1 and DDR1”, the “disruption of the interaction between TM4SF1 and DDR1 (co-immunoprecipitation), peptide” value [1, 4] was “disrupts the interaction between TM4SF1 and DDR1” and the “inhibition of P-STAT3 / downstream signal transduction (Western Blotting), peptide” value [2] was “began to inhibit P-STAT3”. For the same sequence, the “inhibition of P-STAT3 / downstream signal transduction (Western Blotting), peptide” value [2, 4] was “inhibits downstream signal transduction”, the “concentration at which the peptide began to inhibit P-STAT3” value ([2]; different concentrations of peptide, dose-dependent) was 9 µg/mL and the “metastasis of breast cancer, peptide” value [3] was “significantly inhibit the metastasis of breast cancer”. For the same sequence, the “metastasis of breast cancer, peptide” value [3, 4] was “significantly inhibits metastasis of breast cancer”, the “survival time of the mice, peptide” value ([3]; FIG. 13) was “prolong the survival time of the mice” and the “survival time of the mice, peptide” value ([3]; FIG. 13, listed as small extracellular loop 1 peptide of TM4SF1) was “prolongs the survival mice”.

— patent US20200190210A1, “NEW TARGET FOR TREATING CANCER” (TONGJI UNIVERSITY SUZHOU INSTITUTE BIOMEDICAL RESEARCH …, priority 2017, published 2020)
